Laboratory results from US20230159445A1, “STAT INHIBITORY COMPOUNDS AND COMPOSITIONS” (JANPIX LIMITED, priority 2020, published 2023).

Columns and labels:
[1] = tested on: normal human fibroblast (NHF) cells; test: NHF Cell Cytotoxicity Assay (CellTiter-Blue, 72 h), off-target effects; assay type: cell-based; settings: Homo sapiens, Fibroblast; pooled NHF cells
Method in brief: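 Normal human fibroblasts (1×10^4/well, 10% FBS medium) were treated after 24 h with inhibitor at 0.097656-50 μM for 72 h at 37° C. Viability was read by CellTiter-Blue fluorescence (560/590 nm), normalized to DMSO control, and IC50 obtained from a variable-slope log(inhibitor)-response fit of four replicates.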

MV4-11 cells = test: MV4-11 Cell Cytotoxicity Assay (CellTiter-Blue, 72 h); assay type: cell-based, human; settings: Homo sapiens, MV4-11; MV-4-11 cells
Method in brief: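 Viability read-out: CellTiter-Blue, 1 h, fluorescence 560/590 nm. Preceded by 72 h exposure (37° C, 5% CO2) to twofold dilution series from 50 μM, triplicate, 0.5% DMSO vehicle, applied 24 h after plating.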

glutathione (GSH) = test: Reactivity Profiling with Glutathione (GSH), half-life by HPLC; settings: 5 mM glutathione (GSH) in IMDM with 10% FBS

| SMILES | IC50 [1] [nM] | IC50 (MV4-11 cells) [nM] | half-life at 25 μM (glutathione (GSH)) [h] |
| --- | --- | --- | --- |
| Cc1cc(C(=O)O)ccc1N(Cc1cc(C2CC2)cc(C2CC2)c1)C(=O)CN(Cc1cnccc1C(F)(F)F)S(=O)(=O)c1c(F)c(F)c(F)c(F)c1F [Compound 1216, 4-(N-(3,5-dicyclopropylbenzyl)-2-(N-((4-(trifluoromethyl)pyridin-3-yl)methyl)-(2,3,4,5,6-pentafluoro-phenyl)sulfonamido)acetamido)-3-methylbenzoic acid] | 1 to 10000 | 0.01 to 316 | 0.00167 to 2.37 |
| Cc1cc(C(=O)O)ccc1N(Cc1cc(C2CC2)cc(C2CC2)c1)C(=O)CN(Cc1ccccc1C(F)(F)F)S(=O)(=O)c1c(F)c(F)c(F)c(F)c1F [Compound 1217, 4-(N-(3,5-dicyclopropylbenzyl)-2-(N-(2-(trifluoromethyl)benzyl)-(2,3,4,5,6-pentafluoro-phenyl)sulfonamido)acetamido)-3-methylbenzoic acid] | 20000 to 30000 | 0.01 to 316 | 4.12 to 9.23 |
| Cc1cc(C(=O)O)ccc1N(Cc1cc(C2CC2)cc(C2CC2)c1)C(=O)CN(Cc1c(F)cc(F)cc1F)S(=O)(=O)c1c(F)c(F)c(F)c(F)c1F [Compound 1218, 4-(N-(3,5-dicyclopropylbenzyl)-2-(N-(2,4,6-trifluorobenzyl)-(2,3,4,5,6-pentafluoro-phenyl)sulfonamido)acetamido)-3-methylbenzoic acid] | 1 to 10000 | 0.01 to 316 | 0.00167 to 2.37 |
| Cc1cc(C(=O)O)ccc1N(Cc1cc(C2CC2)cc(C2CC2)c1)C(=O)CN(Cc1ccc(F)cc1Cl)S(=O)(=O)c1c(F)c(F)c(F)c(F)c1F [Compound 1219, 4-(2-(N-(2-chloro-4-fluorobenzyl)-(2,3,4,5,6-pentafluorophenyl)sulfon-amido)-N-(3,5-dicyclopropylbenzyl)acetamido)-3-methylbenzoic acid] | 1 to 10000 | 0.01 to 316 | 2.37 to 4.12 |
| O=C(O)c1ccc(N(Cc2cc(C3CC3)cc(C3CC3)c2)C(=O)CN(Cc2ccc(F)cc2Cl)S(=O)(=O)c2c(F)c(F)c(F)c(F)c2F)c(OC2CCOC2)c1 (stereo not drawn) [Compound 1220, 4-(2-(N-(2-chloro-4-fluorobenzyl)-(2,3,4,5,6-pentafluorophenyl)sulfon-amido)-N-(3,5-dicyclopropylbenzyl)acetamido)-3-((tetrahydrofuran-3-yl)oxy)benzoic acid] | 1 to 10000 | 0.01 to 316 | 2.37 to 4.12 |
| O=C(O)c1ccc(N(Cc2cc(C3CC3)cc(C(F)(F)F)c2)C(=O)CN(Cc2ccccc2C(F)(F)F)S(=O)(=O)c2c(F)c(F)c(F)c(F)c2F)c(OC2CC2)c1 [Compound 1221, 3-cyclopropoxy-4-(N-(3-cyclopropyl-5-(trifluoromethyl)benzyl)-2-(N-(2-(trifluoromethyl)benzyl)-(2,3,4,5,6-pentafluoro-phenyl)sulfonamido)acetamido)benzoic acid] | 20000 to 30000 | 316 to 1000 | 9.23 to 1670 |
| O=C(O)c1ccc(N(Cc2cc(C3CC3)cc(C(F)(F)F)c2)C(=O)CN(Cc2ccc(F)cc2Cl)S(=O)(=O)c2c(F)c(F)c(F)c(F)c2F)c(OC2CC2)c1 [Compound 1222, 4-(2-(N-(2-chloro-4-fluorobenzyl)-(2,3,4,5,6-pentafluorophenyl)sulfon-amido)-N-(3-cyclopropyl-5-(trifluoromethyl)benzyl)acetamido)-3-cyclopropoxybenzoic acid] | 10000 to 20000 | 0.01 to 316 | 4.12 to 9.23 |
| CC(C)(C)c1cc(CN(C(=O)CN(Cc2ccc(F)cc2Cl)S(=O)(=O)c2c(F)c(F)c(F)c(F)c2F)c2ccc(C(=O)O)cc2OC2CCOC2)cc(C2CC2)c1 (stereo not drawn) [Compound 1226, 4-(N-(3-(tert-butyl)-5-cyclopropylbenzyl)-2-(N-(2-chloro-4-fluorobenzyl)-(2,3,4,5,6-pentafluorophenyl)sulfon-amido)acetamido)-3-((tetrahydrofuran-3-yl)oxy)benzoic acid] | 1 to 10000 | 0.01 to 316 | 2.37 to 4.12 |
| CCOc1cc(C(=O)O)ccc1N(Cc1cc(C2CC2)cc(C(C)(C)C)c1)C(=O)CN(Cc1ccc(F)cc1Cl)S(=O)(=O)c1c(F)c(F)c(F)c(F)c1F [Compound 1227, 4-(N-(3-(tert-butyl)-5-cyclopropylbenzyl)-2-(N-(2-chloro-4-fluorobenzyl)-(2,3,4,5,6-pentafluorophenyl)sulfon-amido)acetamido)-3-ethoxybenzoic acid] | 10000 to 20000 | 0.01 to 316 | 4.12 to 9.23 |
| CC(C)Oc1cc(C(=O)O)ccc1N(Cc1cc(C2CC2)cc(C(C)(C)C)c1)C(=O)CN(Cc1ccc(F)cc1Cl)S(=O)(=O)c1c(F)c(F)c(F)c(F)c1F [Compound 1228, 4-(N-(3-(tert-butyl)-5-cyclopropylbenzyl)-2-(N-(2-chloro-4-fluorobenzyl)-(2,3,4,5,6-pentafluorophenyl)sulfon-amido)acetamido)-3-isopropoxybenzoic acid] | 20000 to 30000 | 0.01 to 316 | 9.23 to 1670 |
| O=C(O)c1ccc(N(Cc2cc(C3CC3)cc(C3CC3)c2)C(=O)CN(Cc2ccc(F)cc2Cl)S(=O)(=O)c2c(F)c(F)c(F)c(F)c2F)c(OC(F)(F)F)c1 [Compound 1231, 4-(2-(N-(2-chloro-4-fluorobenzyl)-(2,3,4,5,6-pentafluorophenyl)sulfon-amido)-N-(3,5-dicyclopropylbenzyl)acetamido)-3-(trifluoromethoxy) benzoic acid] | 10000 to 20000 | 0.01 to 316 | 4.12 to 9.23 |
| CC(C)Oc1cc(CN(C(=O)CN(Cc2ccc(F)cc2Cl)S(=O)(=O)c2c(F)c(F)c(F)c(F)c2F)c2ccc(C(=O)O)cc2OC2CC2)cc(C2CC2)c1 [Compound 1232, 4-(2-(N-(2-chloro-4-fluorobenzyl)-(2,3,4,5,6-pentafluorophenyl)sulfon-amido)-N-(3-cyclopropyl-5-isopropoxybenzyl)acetamido)-3-cyclopropoxybenzoic acid] | 10000 to 20000 | 0.01 to 316 | 4.12 to 9.23 |
| CC(C)(C)c1cc(CN(C(=O)CN(Cc2c(F)cccc2Cl)S(=O)(=O)c2c(F)c(F)c(F)c(F)c2F)c2ccc(C(=O)O)cc2OC2CC2)cc(C2CC2)c1 [Compound 1238, 4-(N-(3-(tert-butyl)-5-cyclopropylbenzyl)-2-(N-(2-chloro-6-fluorobenzyl)-(2,3,4,5,6-pentafluorophenyl)sulfon-amido)acetamido)-3-cyclopropoxybenzoic acid] | 10000 to 20000 | 0.01 to 316 | 9.23 to 1670 |
| O=C(O)c1ccc(N(Cc2cc(C3CC3)cc(C3CC3)c2)C(=O)CN(Cc2ccc(F)cc2Cl)S(=O)(=O)c2c(F)c(F)c(F)c(F)c2F)c(N2CCOCC2)c1 [Compound 1241, 4-(2-(N-(2-chloro-4-fluorobenzyl)-(2,3,4,5,6-pentafluorophenyl)sulfon-amido)-N-(3,5-dicyclopropylbenzyl)acetamido)-3-morpholinobenzoic acid] | 1 to 10000 | 0.01 to 316 | 4.12 to 9.23 |
| O=C(O)c1ccc(N(Cc2cc(C3CC3)cc(C3CC3)c2)C(=O)CN(CCc2ccc(F)cc2Cl)S(=O)(=O)c2c(F)c(F)c(F)c(F)c2F)c(OC2CC2)c1 [Compound 1242, 4-(2-(N-(2-chloro-4-fluorophenethyl)-(2,3,4,5,6-pentafluorophenyl)sulfon-amido)-N-(3,5-dicyclopropylbenzyl)acetamido)-3-cyclopropoxybenzoic acid] | 10000 to 20000 | 316 to 1000 | 0.00167 to 2.37 |
| COCCOc1cc(C(=O)O)ccc1N(Cc1cc(C2CC2)cc(C(C)(C)C)c1)C(=O)CN(Cc1ccc(F)cc1Cl)S(=O)(=O)c1c(F)c(F)c(F)c(F)c1F [Compound 1246, 4-(N-(3-(tert-butyl)-5-cyclopropylbenzyl)-2-(N-(2-chloro-4-fluorobenzyl)-(2,3,4,5,6-pentafluorophenyl)sulfon-amido)acetamido)-3-(2-methoxyethoxy)benzoic acid] | 10000 to 20000 | 0.01 to 316 | 2.37 to 4.12 |
| Cc1cc(C(=O)O)ccc1N(Cc1cc(C2CC2)cc(C(C)(C)C)c1)C(=O)CN(Cc1cnccc1C(F)(F)F)S(=O)(=O)c1c(F)c(F)c(F)c(F)c1F [Compound 1251, 4-(N-(3-(tert-butyl)-5-cyclopropylbenzyl)-2-(N-((4-(trifluoromethyl)pyridin-3-yl)methyl)-(2,3,4,5,6-pentafluoro-phenyl)sulfonamido)acetamido)-3-methylbenzoic acid] | 1 to 10000 | 0.01 to 316 | 0.00167 to 2.37 |
| CCOc1cc(C(=O)O)ccc1N(Cc1cc(C2CC2)cc(C2CC2)c1)C(=O)CN(Cc1ccc(F)cc1Cl)S(=O)(=O)c1c(F)c(F)c(F)c(F)c1F [Compound 1252, 4-(2-(N-(2-chloro-4-fluorobenzyl)-(2,3,4,5,6-pentafluorophenyl)sulfon-amido)-N-(3,5-dicyclopropylbenzyl)acetamido)-3-ethoxybenzoic acid] | 1 to 10000 | 0.01 to 316 | 2.37 to 4.12 |
| CCCCOc1cc(C(=O)O)ccc1N(Cc1cc(C2CC2)cc(C2CC2)c1)C(=O)CN(Cc1ccc(F)cc1Cl)S(=O)(=O)c1c(F)c(F)c(F)c(F)c1F [Compound 1254, 3-butoxy-4-(2-(N-(2-chloro-4-fluorobenzyl)-(2,3,4,5,6-pentafluorophenyl)sulfon-amido)-N-(3,5-dicyclopropylbenzyl)acetamido)benzoic acid] | 20000 to 30000 | 0.01 to 316 | 9.23 to 1670 |
